Tested on: panel of cancer cell lines
Experiment: Cell viability (CellTiter-Glo) dose-response across cancer cell line panel;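 as to EC50: after 72 h compound incubation with CellTiter-Glo ATP readout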
Assay type: cell-based, human
Details: for EC50: Homo sapiens
Source text: Next, we explored the effect of CSN5 inhibition on the viability of cancer cells. To obtain a comprehensive picture, we generated dose–response curves with a CSN5 inhibitor across more than 500 cancer cell lines in a previously described standardized setting[47] (Supplementary Data 1).
A standardized CellTiter-Glo Assay (Promega #G7570) based on the quantification of ATP was applied according to the manufacturer's protocol to measure the amount of viable cells in culture. In brief, cells were seeded into 384-well plates at optimal density for each cell line. After 4 h, compounds were added at different concentrations in growth medium and incubated for another 72 h in a humidifying chamber at 37 °C and 5% CO2. […] EC50 values were calculated from the plot of percentage of inhibition versus inhibitor concentration using the nonlinear regression analysis software Origin 7.5SR6 (OriginLab Corp.).

COCc1ccccc1NCc1ccc([C@H]2[C@@H](O)CCCc3cncn32)c(-c2ccccc2Cl)c1 [CSN5i-2, (5S,6S)-5-(2′-chloro-5-(((2-(methoxymethyl)phenyl)amino)methyl)-[1,1′-biphenyl]-2-yl)-6,7,8,9-tetrahydro-5H-imidazo[1,5-a]azepin-6-ol] was tested, and the AMAX (59M) was -68.225, the AMAX (A101D) was -76.7398 and the AMAX (A172) was -55.6841. For the same molecule, the AMAX (A549) was -65.9191, the AMAX (A2780) was -85.074 and the AMAX (ABC-1) was -77.8125. For the same molecule, the AMAX (AM-38) was -77.876, the AMAX (AU565) was -62.6343 and the AMAX (AsPC-1) was -59.6849. For the same molecule, the AMAX (BFTC-909) was -64.2004, the AMAX (BICR 6) was -79.1425 and the AMAX (BICR 16) was -84.074. It also gave an AMAX (Calu-6) of -81.2731, an AMAX (FaDu) of -81.7331 and an AMAX (GP2d) of -35.7458. The AMAX (HARA) was -63.4816, the AMAX (HCC1143) was -57.1762 and the AMAX (HCC1187) was -75.8993. It also gave an AMAX (HCC1954) of -88.6962, an AMAX (HD-MY-Z) of -86.2175 and an AMAX (HEC-151) of -65.4188. It also gave an AMAX (HEL) of -95.954, an AMAX (HL-60) of -90.6278 and an AMAX (HLC-1) of -73.9563. For the same molecule, the AMAX (HLE) was -90.9124, the AMAX (HLF) was -62.5035 and the AMAX (HSC-4) was -75.9669. The AMAX (HT-29) was -64.9206, the AMAX (HUP-T4) was -81.3707 and the AMAX (Hep3B) was -76.5642. The EC50 (59M) was 2650 nM, the EC50 (92.1) was 3880 nM and the EC50 (639-V) was 723 nM. The EC50 697 was 477 nM, the EC50 (769-P) was 13900 nM and the EC50 (786-0, 786-O) was 1050 nM. For the same molecule, the EC50 (1321-N1, 1321N1) was 3680 nM, the EC50 (8505C) was 829 nM and the EC50 (A4/Fuk) was 120 nM. The EC50 (A101D) was 372 nM, the EC50 (A 172, A172) was 13400 nM and the EC50 (A204, A-204) was 206 nM. For the same molecule, the EC50 (A498, A-498) was 1400 nM, the EC50 (A549, A549) was 1410 nM and the EC50 (A673, A-673) was 431 nM. It also gave an EC50 (A704, A-704) of 1640 nM, an EC50 (A2058, A2058) of 2050 nM and an EC50 (A2780, A2780) of 279 nM. For the same molecule, the EC50 (A-375, A-375) was 690 nM, the EC50 (ABC-1, ABC-1) was 485 nM and the EC50 (ACC-MESO-1, ACC-MESO-1) was 2400 nM. It also gave an EC50 (AM-38, AM-38) of 983 nM, an EC50 (AML-193) of 3210 nM and an EC50 (AN3-CA, AN3 CA) of 2230 nM. It also gave an EC50 (ASPC1, AsPC-1) of 4740 nM, an EC50 (AU565, AU565) of 1350 nM and an EC50 (BC-3C) of 2030 nM. The EC50 (BEN) was 12500 nM, the EC50 (BFTC-909, BFTC-909) was 7580 nM and the EC50 (BICR 6) was 1110 nM. It also gave an EC50 (BICR 16) of 1020 nM, an EC50 (BICR 31) of 1210 nM and an EC50 (BT-16, BT-16) of 3280 nM. For the same molecule, the EC50 (BT-549, BT-549) was 296 nM, the EC50 (BXPC-3, BxPC-3) was 6030 nM and the EC50 (C3A) was > 30000 nM. For the same molecule, the EC50 (C32, C32) was 830 nM, the EC50 (CAKI-1, Caki-1) was 845 nM and the EC50 (CAKI-2, Caki-2) was 3040 nM. For the same molecule, the EC50 (CAL-12T) was 474 nM, the EC50 (CAL-27, CAL 27) was 713 nM and the EC50 (CAL-29) was 5690 nM. The EC50 (CAL-54, CAL-54) was 1170 nM, the EC50 (CAL-85-1, CAL-85-1) was 7990 nM and the EC50 (CAL-120, CAL-120) was 6810 nM. It also gave an EC50 (CAL-148, CAL-148) of 1680 nM, an EC50 (CAMA-1, CAMA-1) of 20500 nM and an EC50 (CAPAN-1, Capan-1) of 643 nM. For the same molecule, the EC50 (CAS-1) was 705 nM, the EC50 (CCRF-HSB-2, CCRF-HSB-2) was 150 nM and the EC50 (CEM/C1, CEMC1) was 343 nM. The EC50 (CFPAC-1, CFPAC-1) was 3540 nM, the EC50 (CL-14) was > 30000 nM and the EC50 (CL-34) was 3880 nM. The EC50 (CMK) was 1800 nM, the EC50 (CMK-86, CMK-86) was 1720 nM and the EC50 (COLO 201, COLO 201) was 1120 nM. For the same molecule, the EC50 (COLO 205, COLO 205) was 12500 nM, the EC50 (COLO 320, COLO-320) was 1400 nM and the EC50 (COLO 699, COLO-699) was 3050 nM. For the same molecule, the EC50 (COLO 704, COLO-704) was 634 nM, the EC50 (COLO-678, COLO-678) was 3410 nM and the EC50 (COLO-679, COLO-679) was 492 nM. For the same molecule, the EC50 (COLO-741, COLO 741) was 1340 nM, the EC50 (COLO-829, COLO 829) was 10700 nM and the EC50 (COR-L23, COR-L23) was 11800 nM. For the same molecule, the EC50 (COR-L105, COR-L105) was 4940 nM, the EC50 (COV362, COV362) was 8840 nM and the EC50 (COV644) was 1040 nM. For the same molecule, the EC50 (CW-2, CW-2) was 4950 nM, the EC50 (Calu-1, Calu-1) was 13000 nM and the EC50 (Calu-6, Calu-6) was 539 nM. The EC50 (ChaGo-K-1, ChaGo-K-1) was 967 nM, the EC50 (Ci-1, CI-1) was 193 nM and the EC50 (DAN-G) was 13400 nM. For the same molecule, the EC50 (DB) was 290 nM, the EC50 (DLD-1, DLD-1) was > 30000 nM and the EC50 (DMS-53, DMS 53) was 8760 nM. The EC50 (DMS-153, DMS 153) was 405 nM, the EC50 (DMS-273, DMS 273) was 691 nM and the EC50 (DU-4475, DU4475) was 218 nM. The EC50 (Daoy) was 542 nM, the EC50 (Detroit 562, Detroit 562) was 4000 nM and the EC50 (EBC-1, EBC-1) was 5630 nM. The EC50 (EOL1, EOL-1) was 262 nM, the EC50 (FaDu) was 550 nM and the EC50 (Fu97, FU97) was 942 nM. The EC50 (G-401, G-401) was 402 nM, the EC50 (G-402, G-402) was 4100 nM and the EC50 (GAMG) was 2920 nM. The EC50 (GB-1, GB-1) was 3900 nM, the EC50 (GDM-1, GDM-1) was 162 nM and the EC50 (GI-1, GI-1) was 3270 nM. For the same molecule, the EC50 (GP2d) was > 30000 nM, the EC50 (H4) was 790 nM and the EC50 (HARA) was 9030 nM. The EC50 (HCC15, HCC-15) was 5200 nM, the EC50 (HCC44, HCC-44) was 2380 nM and the EC50 (HCC70, HCC70) was 2350 nM. For the same molecule, the EC50 (HCC78, HCC-78) was 2290 nM, the EC50 (HCC95, HCC-95) was 18400 nM and the EC50 (HCC827, HCC827) was 1780 nM. The EC50 (HCC1143, HCC1143) was 6070 nM, the EC50 (HCC1187, HCC1187) was 7500 nM and the EC50 (HCC1588, HCC-1588) was 421 nM. The EC50 (HCC1806, HCC1806) was 5450 nM, the EC50 (HCC1954, HCC1954) was 2180 nM and the EC50 (HCC4006, HCC4006) was 1730 nM. For the same molecule, the EC50 (HCC-56) was 413 nM, the EC50 (HCC-1359) was 1870 nM and the EC50 (HCC-1833) was 3410 nM. For the same molecule, the EC50 (HCT-15, HCT-15) was 1360 nM and the EC50 (HD-MY-Z) was 531 nM.
